This note sets out measurements from patent US9999224B2, “Antimicrobial reverse thermal gel and methods of forming and using same” (The Regents of the University of Colorado, a body corporate, priority 2014, dated 2018).

The series has as its system cells. Nature of the series: MTT assay, cytotoxicity / biocompatibility (FIG. 12). Particulars: cells plated on dried polymer layer; Q-PEI-PNIPAAm 20% conjugation at 1, 3 and 5%; negative control growth medium, positive control 5% DMSO. The format is cell-based. The procedure:
FIG. 12 illustrates Cytotoxicity Tests of Q-PEI-PNIPAAm. An MTT assay was conducted to assess the biocompatibility of Q-PEI-PNIPAAm. Several methods were used to conduct this test. Previously, the Q-PEI-PNIPAAm polymer had been placed on top of the cells mixed with the media; however, due to the gelling nature of the sample the polymer was not in contact with the cells for long period of time. Due to this, the methodology was modified and the cells were plated on top of the polymer and then trypsinized and re-plated before conducting the test; however, trypsinizing, centrifuging and re-plating cells can lead to higher variability in number of cells per well and since the cells were not left to attached on the plates for long enough the results may be inaccurate. Finally the polymer was dissolved in alcohol, left to evaporate and then the cells were plated on top. Since the MTT measures absorbance, blanks were required for each sample. However, the layer of polymer on the plate needed to be very thin so the polymer concentration tested was 1, 3 and 5%. […] Chlorhexidine 2%, a common skin preparation solution was tested as a control.
A statistically significant difference was observed between the experimental samples, negative and positive control (cells cultured with 5% DMSO) (***indicates […], and **indicates p<0.05.).
A general note: Tetrazolium dyes change colour on reduction, which living cells bring about.

With `[H]/N=C(\N/C(=N/[H])NCCCCCCNC(=N)NC(=N)Nc1ccc(Cl)cc1)Nc1ccc(Cl)cc1` [chlorhexidine], the “Metabolic activity of cells (MTT absorbance) versus controls” value is given as “the same difference was obtained”.
